In ChEMBL document CHEMBL1201862, “PubChem BioAssay data set” (2004):
Activity calls are given as the source filed them.

Key:
[1] = A Cell Based Secondary Assay To Explore Cytotoxicity of Compounds that Sensitize Mycobacterium Tuberculosis to Beta-Lactam Antibiotics.; type: functional
[2] = Vero cell cytotoxicity, dose response, cytotoxicity control for Vif-APOBEC3G degradation inhibitor project, Vero cells (AID 1117358); type: functional; conditions: Human immunodeficiency virus 1, Vero
Phospholipase D2 [3] = target: T1, Phospholipase D2 (Homo sapiens, UniProt O14939); test: PLD2 Cellular Concentration Response Study.; type: functional
T1 sequence (O14939 whole entry): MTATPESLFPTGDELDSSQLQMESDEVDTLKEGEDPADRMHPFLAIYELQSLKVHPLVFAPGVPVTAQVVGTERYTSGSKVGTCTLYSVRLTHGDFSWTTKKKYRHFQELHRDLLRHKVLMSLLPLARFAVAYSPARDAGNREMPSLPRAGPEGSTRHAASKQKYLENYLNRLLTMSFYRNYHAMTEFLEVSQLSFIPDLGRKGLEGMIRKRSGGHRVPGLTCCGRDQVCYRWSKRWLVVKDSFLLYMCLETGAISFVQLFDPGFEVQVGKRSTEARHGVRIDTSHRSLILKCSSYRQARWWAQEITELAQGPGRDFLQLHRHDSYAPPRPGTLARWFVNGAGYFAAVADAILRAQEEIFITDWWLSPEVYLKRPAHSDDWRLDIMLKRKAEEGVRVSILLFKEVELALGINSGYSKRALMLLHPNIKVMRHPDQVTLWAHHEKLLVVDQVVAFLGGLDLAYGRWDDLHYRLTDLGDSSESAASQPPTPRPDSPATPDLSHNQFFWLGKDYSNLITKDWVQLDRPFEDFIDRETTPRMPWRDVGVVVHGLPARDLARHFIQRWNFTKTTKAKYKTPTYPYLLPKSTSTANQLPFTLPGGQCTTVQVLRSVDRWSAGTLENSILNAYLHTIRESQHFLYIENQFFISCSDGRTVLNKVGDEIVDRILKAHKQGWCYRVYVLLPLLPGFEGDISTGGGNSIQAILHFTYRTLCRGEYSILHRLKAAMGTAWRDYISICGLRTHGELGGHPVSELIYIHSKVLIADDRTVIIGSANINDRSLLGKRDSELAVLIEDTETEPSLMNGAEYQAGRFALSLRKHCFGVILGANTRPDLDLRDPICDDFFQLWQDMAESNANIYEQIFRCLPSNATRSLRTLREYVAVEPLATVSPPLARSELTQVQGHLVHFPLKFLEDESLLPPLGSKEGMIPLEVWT

Phospholipase D1 [4] = target: T2, Phospholipase D1 (Homo sapiens, UniProt Q13393); test: PLD1 Cellular Concentration Response Study.; type: functional
T2 sequence (Q13393 whole entry): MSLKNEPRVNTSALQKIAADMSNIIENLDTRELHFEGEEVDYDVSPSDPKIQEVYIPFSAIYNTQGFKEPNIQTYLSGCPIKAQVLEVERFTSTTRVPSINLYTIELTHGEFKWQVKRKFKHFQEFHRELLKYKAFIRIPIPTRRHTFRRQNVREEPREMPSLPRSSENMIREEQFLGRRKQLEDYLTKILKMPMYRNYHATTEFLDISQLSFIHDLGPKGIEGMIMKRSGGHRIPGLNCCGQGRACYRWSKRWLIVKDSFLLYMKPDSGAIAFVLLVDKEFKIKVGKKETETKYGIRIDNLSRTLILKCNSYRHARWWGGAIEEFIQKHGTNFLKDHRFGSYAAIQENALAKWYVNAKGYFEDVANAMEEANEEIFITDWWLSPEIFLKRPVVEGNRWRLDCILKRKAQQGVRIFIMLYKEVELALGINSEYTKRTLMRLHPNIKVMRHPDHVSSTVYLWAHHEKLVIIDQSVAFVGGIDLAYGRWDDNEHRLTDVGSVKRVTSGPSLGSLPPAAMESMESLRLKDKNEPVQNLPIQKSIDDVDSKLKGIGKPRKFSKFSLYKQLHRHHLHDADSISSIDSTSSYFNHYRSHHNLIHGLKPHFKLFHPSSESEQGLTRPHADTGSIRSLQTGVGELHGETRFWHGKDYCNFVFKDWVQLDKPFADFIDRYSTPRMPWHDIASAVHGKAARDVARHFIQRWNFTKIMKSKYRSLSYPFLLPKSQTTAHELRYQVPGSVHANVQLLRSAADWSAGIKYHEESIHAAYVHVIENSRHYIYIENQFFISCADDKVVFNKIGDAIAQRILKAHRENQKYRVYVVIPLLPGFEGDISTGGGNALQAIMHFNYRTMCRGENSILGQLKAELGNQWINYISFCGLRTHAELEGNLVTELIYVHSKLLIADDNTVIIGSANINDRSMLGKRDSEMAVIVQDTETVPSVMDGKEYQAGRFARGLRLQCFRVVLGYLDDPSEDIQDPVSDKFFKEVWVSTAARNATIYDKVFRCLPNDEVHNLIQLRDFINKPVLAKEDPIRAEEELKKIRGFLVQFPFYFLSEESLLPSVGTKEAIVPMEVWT

Phospholipase D2 [5] = target: T1, Phospholipase D2; test: Discovery of PLD2 inhibitors using the Purified Enzyme Concentration Response Assay.; type: functional
Phospholipase D1 [6] = target: T2, Phospholipase D1; test: purified PLD1 inhibitor potency, IC50, confirmation, biochemical, concentration response (AID 743390); type: functional
[7] = C. neoformans growth inhibition with sorbitol, dose response, mechanism study for C. neoformans lysis project, alamar blue, dry powder, set 3 (AID 743304); type: functional, organism-based
cells [8] = conditions: HEK293
[9] = target: Glutathione-S-transferase (Schistosoma japonicum, UniProt Q26513); test: biotin-GST/anti-GST TR-FRET signal inhibitors, dose response, artefact control for Vif-APOBEC3G degradation inhibitor project, biochemical (AID 1117362); type: functional
Chain of Glutathione-S-transferase (Q26513 whole entry): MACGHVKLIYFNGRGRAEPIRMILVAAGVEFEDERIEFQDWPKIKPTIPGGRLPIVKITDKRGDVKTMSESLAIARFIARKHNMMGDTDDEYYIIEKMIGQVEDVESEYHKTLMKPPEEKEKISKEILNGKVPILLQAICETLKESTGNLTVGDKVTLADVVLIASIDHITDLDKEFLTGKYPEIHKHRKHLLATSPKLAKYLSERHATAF

[10] = THP-1 cell cytotoxicity, dose response, cytotoxicity control for Vif-APOBEC3G degradation inhibitor project, THP-1 cells (AID 1117359); type: functional; conditions: Human immunodeficiency virus 1, THP-1
[11] = cytotoxicity toward Colo320 cells – cell-based, CellTiter-Glo luminescence, IC50, dose response (AID 1117334); type: functional; conditions: COLO 320
[12] = CellTiter-Glo luminescent dose response of DLD-1 viability loss (AID 1117352); type: functional
[13] = cytotoxicity toward HCT116 cells – cell-based, CellTiter-Glo luminescence, IC50, dose response (AID 1117332); type: functional; conditions: HCT-116
[14] = RKO cell viability reduction, dose response, CellTiter-Glo luminescence (AID 1117322); type: functional
[15] = Concentration-dependent survival of SW480 colon cancer line, luminescence detection with CellTiter-Glo, half-maximal inhibitory concentration (AID 1117338); type: functional
[16] = cytotoxicity toward HT-29 cells – cell-based, CellTiter-Glo luminescence, IC50, dose response (AID 1117330); type: functional
[17] = HCT116 cell viability decrease, GSK3B pretreatment – CellTiter-Glo, IC50, dose response (AID 1117339); type: functional; conditions: HCT-116
[18] = Luminescence Cell-Based Dose Retest to Confirm Inhibitors of Cancer Stem Cells. [Related pubchem assays (depositor defined):AID2717, AID2721]; type: functional; conditions: Homo sapiens
[19] = SNU-C1 cell viability reduction, dose response, CellTiter-Glo luminescence (AID 1117323); type: functional, cell-based
[20] = microbe, parasite or virus in culture; type: functional; conditions: Mycobacterium tuberculosis
[21] = target: Metabotropic glutamate receptor 5 (Rattus norvegicus, UniProt P31424); test: Identification of a glycine sulfonamide based non-MPEP site positive allosteric potentiator (PAM) of mGlu5 (calcium_assay).; type: functional
Chain of Metabotropic glutamate receptor 5 (P31424 whole entry): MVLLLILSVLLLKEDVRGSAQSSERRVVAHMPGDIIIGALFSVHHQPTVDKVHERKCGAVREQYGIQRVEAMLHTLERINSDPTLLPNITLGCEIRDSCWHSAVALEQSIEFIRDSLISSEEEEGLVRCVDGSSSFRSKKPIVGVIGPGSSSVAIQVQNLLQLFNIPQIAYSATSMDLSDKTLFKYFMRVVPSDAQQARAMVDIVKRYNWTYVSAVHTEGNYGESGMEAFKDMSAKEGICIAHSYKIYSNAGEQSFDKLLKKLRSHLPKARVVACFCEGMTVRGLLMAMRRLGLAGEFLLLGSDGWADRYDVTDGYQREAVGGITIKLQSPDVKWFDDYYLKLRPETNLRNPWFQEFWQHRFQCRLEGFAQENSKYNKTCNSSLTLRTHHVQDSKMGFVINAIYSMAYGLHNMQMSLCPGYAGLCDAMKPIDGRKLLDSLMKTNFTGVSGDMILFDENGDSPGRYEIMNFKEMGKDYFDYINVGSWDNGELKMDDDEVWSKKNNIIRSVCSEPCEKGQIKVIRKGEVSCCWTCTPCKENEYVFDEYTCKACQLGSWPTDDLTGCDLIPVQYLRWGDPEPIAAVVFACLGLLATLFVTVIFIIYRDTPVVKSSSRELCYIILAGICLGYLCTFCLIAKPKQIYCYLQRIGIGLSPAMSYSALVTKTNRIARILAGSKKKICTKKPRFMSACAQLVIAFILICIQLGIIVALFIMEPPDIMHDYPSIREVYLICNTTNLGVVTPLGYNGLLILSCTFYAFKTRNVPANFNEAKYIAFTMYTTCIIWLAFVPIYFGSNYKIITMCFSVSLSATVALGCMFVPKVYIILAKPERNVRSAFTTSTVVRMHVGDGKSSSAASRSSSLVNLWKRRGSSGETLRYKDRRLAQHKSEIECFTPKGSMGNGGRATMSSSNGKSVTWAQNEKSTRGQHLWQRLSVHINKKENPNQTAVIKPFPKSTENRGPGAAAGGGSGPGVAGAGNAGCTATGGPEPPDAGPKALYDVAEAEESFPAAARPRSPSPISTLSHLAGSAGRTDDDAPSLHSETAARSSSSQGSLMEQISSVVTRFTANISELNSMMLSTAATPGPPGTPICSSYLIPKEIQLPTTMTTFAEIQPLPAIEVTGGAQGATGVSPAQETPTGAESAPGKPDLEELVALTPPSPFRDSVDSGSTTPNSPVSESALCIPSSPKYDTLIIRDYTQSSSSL

[22] = MITF Orthogonal Assay: SK-MEL-5 CTG Assay Measured in Cell-Based System Using Plate Reader - 2084-02_Inhibitor_Dose_DryPowder_Activity_Set5.; type: functional
[23] = SK-MEL-5 parental line viability, dose response, MITF inhibitor project, cell-based, CellTiter-Glo, dry powder, set 6 (AID 624429); type: functional
[24] = MITF Measured in Cell-Based System Using Plate Reader - 2084-01_Inhibitor_Dose_DryPowder_Activity_Set7.; type: functional
[25] = MITF Measured in Cell-Based System Using Plate Reader - 2084-01_Inhibitor_Dose_DryPowder_Activity_Set6.; type: functional
[26] = A375 melanoma cell cytotoxicity, dose response, counter-screen for MITF inhibitor project, CellTiter-Glo luminescence, dry powder, set 7 (AID 624490); type: functional, cell-based; conditions: A-375
[27] = target: T3, Heat shock factor protein 1 (Mus musculus, UniProt P38532); test: HSF1 potentiators in luciferase reporter cells, confirmation, cell-based, NIH3T3, luminescence, dose retest (AID 435004); type: functional;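 further: stress induced by proteasome inhibitor MG132 added 30 min after compound; luciferase reporter driven by HSF1 response element in NIH3T3 cells; actives raise luminescence as potentiators of the MG132 stress response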
T3 sequence (P38532 whole entry): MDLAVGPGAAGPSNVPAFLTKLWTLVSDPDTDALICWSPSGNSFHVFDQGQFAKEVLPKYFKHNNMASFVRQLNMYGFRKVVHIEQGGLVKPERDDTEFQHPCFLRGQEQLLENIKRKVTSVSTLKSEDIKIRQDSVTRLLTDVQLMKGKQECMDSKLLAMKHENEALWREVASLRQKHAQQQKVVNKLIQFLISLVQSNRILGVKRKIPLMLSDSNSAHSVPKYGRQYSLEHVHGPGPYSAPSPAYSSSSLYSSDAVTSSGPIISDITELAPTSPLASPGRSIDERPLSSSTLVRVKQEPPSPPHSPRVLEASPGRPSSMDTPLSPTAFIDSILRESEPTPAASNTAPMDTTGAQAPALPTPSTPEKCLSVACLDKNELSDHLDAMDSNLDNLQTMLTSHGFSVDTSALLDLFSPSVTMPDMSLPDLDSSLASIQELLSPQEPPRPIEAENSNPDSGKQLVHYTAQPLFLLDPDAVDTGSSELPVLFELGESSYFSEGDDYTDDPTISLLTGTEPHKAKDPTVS

[28] = HepG2 cell cytotoxicity, dose response, cytotoxicity control, ATP luminescence, cherry-pick, set 6 (AID 1053125); type: functional, cell-based
cells [29] = conditions: A549
cells [30] = test: cells
[31] = target: NAD-dependent protein deacylase sirtuin-5, mitochondrial (Homo sapiens, UniProt Q9NXA8); test: SIRT5 desuccinylase inhibitors, dose response, biochemical, fluorescence imaging, cherry-pick, set 5 (AID 720591);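 further: desuccinylation of succinyl peptide AMC substrate read as fluorescence after trypsin release; potency of inhibitors that lower fluorescence and may act on trypsin instead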
Chain of NAD-dependent protein deacylase sirtuin-5, mitochondrial (Q9NXA8 whole entry): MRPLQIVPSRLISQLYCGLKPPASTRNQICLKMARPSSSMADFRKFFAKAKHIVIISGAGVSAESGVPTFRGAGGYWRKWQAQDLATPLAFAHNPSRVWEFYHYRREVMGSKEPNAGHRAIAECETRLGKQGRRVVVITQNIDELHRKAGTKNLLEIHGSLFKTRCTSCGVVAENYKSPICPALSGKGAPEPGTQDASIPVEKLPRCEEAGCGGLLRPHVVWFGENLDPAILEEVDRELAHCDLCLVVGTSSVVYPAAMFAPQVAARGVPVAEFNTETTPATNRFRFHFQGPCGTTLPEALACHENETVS

[32] = endogenous miR-122 level reduction, dose response, orthogonal assay for miR-122 inhibitor project, cell-based, Huh7, RT-qPCR, dry powder (AID 687041); type: functional
[33] = inhibitors of Vif binding to APOBEC3G peptide, primary screen, biochemical, TR-FRET, GST-Vif 1-94, biotin-A3G peptide, dose response retest (AID 1117319); type: functional;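 further: TR-FRET signal of purified GST-Vif binding a biotinylated A3G peptide; inhibitors lower the FRET signal by blocking Vif and A3G binding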
[34] = HEK293 cell cytotoxicity, dose response, cytotoxicity control, cherry-picks, set 5 (AID 1053117); type: functional, cell-based
[35] = fibronectin fibrillogenesis inhibitors in fibroblasts, dose response, AH1F cells, Alexa488-fibronectin fluorescence, cherry-pick, set 2 (AID 1117283); type: functional, cell-based
[36] = HEK293T cytotoxicity, dose response, cytotoxicity control for miR-122 modulator project, cell-based, activator set, cherry-pick (AID 720690); type: functional;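 further: HEK293T human cells scored for general mammalian cytotoxicity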
[37] = target: Solute carrier family 12 member 2/member 5 (Homo sapiens, UniProt P55011+Q9H2X9); test: KCC2 and NKCC1 inhibition by rubidium flux, cell-based, NKCC1 counter-screen (AID 1734); type: functional, HEK293
[38] = P. falciparum Dd2 blood-stage growth inhibition, dose response, SYBR Green fluorescence, erythrocytes, dry powder, set 2 (AID 1159574); type: functional, cell-based

For `O=C(NNC(=O)c1cc(OCC(F)(F)F)ccc1OCC(F)(F)F)c1cccc(C(F)(F)F)c1`, the CC50 [1] was > 40 µM (active) and the CC50 [2] was > 40 µM (active).

In the case of `O=C(NCCN1CCC2(CC1)C(=O)NCN2Cc1cccnc1)c1cc2ccccc2[nH]1`, the IC50 (Phospholipase D2 [3]) was 0.05 µM (active), the IC50 (Phospholipase D1 [4]) was 3.59 µM (active) and the IC50 (Phospholipase D2 [5]) was 0.94 µM (active). For the same compound, the IC50 (Phospholipase D1 [6]) was 20 µM (active).

In the case of `COCc1nc2ccccc2n1CCOc1ccc(C(C)(C)C)cc1`, the AC50 [7] was 52.3 µM (active) and the AC50 (cells [8]) was 34 µM (active).

For `COc1ccc2c(c1)O[C@@H](c1ccc3c(c1)OCO3)[C@H](OC(=O)Nc1cc(OC)c(OC)c(OC)c1)C2=O`, the IC50 [9] was > 100 µM (active) and the CC50 [10] was 6.65 µM (active).

For `CC1=C(/C=C/C(C)=C/C=C/C(C)=C/C(=O)Nc2ccc(O)cc2)C(C)(C)CCC1` [FENRETINIDE], the IC50 [11] was 3.24 µM (active), the IC50 [12] was 9.49 µM (inactive) and the IC50 [13] was 5.3 µM (inactive). The IC50 [14] was 1.72 µM (active), the IC50 [15] was 4.85 µM (active) and the IC50 [16] was 2.12 µM (active). The IC50 [17] was 4.95 µM (active), the AC50 [18] was 1.04 µM (active) and the IC50 [19] was 6.69 µM (inactive). The CC50 [20] was 14.4 µM (active).

In the case of `CS(=O)(=O)N(CC(=O)N1CCc2ccccc21)c1cc(C(F)(F)F)ccc1Cl`, the EC50 [21] was 10 µM (inconclusive).

In the case of `CNC1=CC(=O)c2ccccc2C1=O`, the AC50 [22] was 52.9 µM (active), the AC50 [23] was 62.6 µM (active) and the AC50 [24] was 17.2 µM (active). For the same compound, the AC50 [25] was 11.3 µM (active) and the AC50 [26] was > 70 µM (inactive).

With `COc1ccc(C2C3=C(CCCC3=O)N(CC(=O)O)C3=C2C(=O)CCC3)cc1Cl` the EC50 [27] was > 260 µM (inactive), the AC50 [28] was > 52 µM (inactive) and the AC50 (cells [29]) was > 52 µM (inactive). For the same compound, the AC50 (cells [30]) was 2.66 µM (active).

With `CCC(C)(C)NC(=O)C(c1ccc(F)cc1)N(Cc1ccco1)C(=O)CCC(=O)Nc1ccccn1` (stereo not drawn) the AC50 [31] was > 30 µM (inactive).

For `Cc1ccc(S(=O)(=O)Nc2ccc3c4c(cccc24)CC3)c(C)c1`, the AC50 [32] was 0.567 µM (active).

With `O=C(Nc1c2c(nn1-c1ccc(F)cc1)C[S+]([O-])C2)C12CC3CC(CC(C3)C1)C2` (stereo not drawn) the IC50 [33] was > 100 µM (active).

In the case of `CO[C@H]1CN(C)C(=O)c2cc(NC(=O)Nc3cc(Cl)cc(Cl)c3)ccc2OC[C@H](C)NC[C@@H]1C`, the AC50 [34] was > 52 µM (inactive), the AC50 [35] was > 70 µM (inactive) and the AC50 [36] was 16.9 µM (active).

For `O=C(/C=C/c1ccccc1)Nc1scc(-c2ccccc2)c1C(=O)O`, the IC50 [37] was 7.9 µM (active).

In the case of `O=C(c1ccccc1F)N1CC(=O)N2[C@H](CO)[C@H](c3ccc(-c4cccnc4)cc3)[C@@H]2C1`, the AC50 [38] was > 39 µM (inactive).
